Results on 39 compounds are retold here after paper PMC10018608 (Signal Transduction and Targeted Therapy, 2023).

One assay has as its target T1, SARS-CoV-2 M^pro (Severe acute respiratory syndrome coronavirus 2, UniProt P0DTD1). The assay is described as follows: biochemical. The following applies: […]; mean ± SD from three experiments.
The IC50 is the point on the concentration scale where inhibition reaches its midpoint. `O=C(NCc1nccs1)C(=O)[C@@H](Cc1ccccc1)NC(=O)c1ccccc1F` [3a, (R)-N-(3,4-dioxo-1-phenyl-4-((thiazol-2-ylmethyl)amino)butan-2-yl)-2-fluorobenzamide] had an IC50 of 264 ± 4 nM.

Compound `O=C(NCc1nccs1)C(=O)[C@@H](Cc1ccccc1)NC(=O)c1cccc(F)c1` [3b] displayed a concentration for half-maximal inhibition (IC50) of 478 ± 4.8 nM.

`O=C(Cc1ccccc1)N[C@H](Cc1ccccc1)C(=O)C(=O)NCc1nccs1` [3d] came in with an IC50 of 949 ± 39.9 nM.

With `O=C(COc1ccccc1)N[C@H](Cc1ccccc1)C(=O)C(=O)NCc1nccs1` [3f], the IC50 is 880.8 ± 1.2 nM.

`O=C(CNC(=O)c1ccccc1F)N[C@H](Cc1ccccc1)C(=O)C(=O)NCc1nccs1` [3k] returned an IC50 of 998.3 ± 0.2 nM.

On to `O=C(CNC(=O)c1cccc(F)c1)N[C@H](Cc1ccccc1)C(=O)C(=O)NCc1nccs1` [3l], for which inhibition was half-maximal at 538.2 ± 4.3 nM (IC50).

In the case of `O=C(CNC(=O)c1ccc(F)cc1)N[C@H](Cc1ccccc1)C(=O)C(=O)NCc1nccs1` [3m], inhibition was half-maximal at 348.4 ± 3 nM (IC50).

The compound `O=C(CNC(=O)C1CCC(F)(F)CC1)N[C@H](Cc1ccccc1)C(=O)C(=O)NCc1nccs1` [3n] had an IC50 of 50.3 ± 2.6 nM.

As for `O=C(CNC(=O)C1CCCC(F)(F)C1)N[C@H](Cc1ccccc1)C(=O)C(=O)NCc1nccs1` (stereo partly shown) [3o], half-maximal inhibition (IC50) was put at 45.8 ± 2.1 nM.

`O=C(CNC(=O)C1CCC(F)(F)C1)N[C@H](Cc1ccccc1)C(=O)C(=O)NCc1nccs1` (stereo partly shown) [3p] returned an IC50 of 56.5 ± 5.4 nM.

Turning to `O=C(CC1CC(F)(F)C1)NCC(=O)N[C@H](Cc1ccccc1)C(=O)C(=O)NCc1nccs1` [3q], the 50% inhibitory concentration (IC50) turned out to be 23.4 ± 2.2 nM.

On to `C[C@@H](NC(=O)C1CCCC(F)(F)C1)C(=O)N[C@H](Cc1ccccc1)C(=O)C(=O)NCc1nccs1` (stereo partly shown) [3s], for which half-maximal inhibition (IC50) required 28.3 ± 0.6 nM.

For the compound `C[C@@H](NC(=O)C1CCC(F)(F)C1)C(=O)N[C@H](Cc1ccccc1)C(=O)C(=O)NCc1nccs1` (stereo partly shown) [3t], it took 22.5 ± 0.7 nM to reach half-maximal inhibition (IC50).

Regarding `C[C@@H](NC(=O)CC1CC(F)(F)C1)C(=O)N[C@H](Cc1ccccc1)C(=O)C(=O)NCc1nccs1` [3u], half-maximal inhibition (IC50) was put at 17.2 ± 0.3 nM.

In the case of `COC[C@@H](NC(=O)C1CCC(F)(F)CC1)C(=O)N[C@H](Cc1ccccc1)C(=O)C(=O)NCc1nccs1` [3v], the 50% inhibitory concentration (IC50) is 18.4 ± 1.3 nM.

`COC[C@@H](NC(=O)CC1CC(F)(F)C1)C(=O)N[C@H](Cc1ccccc1)C(=O)C(=O)NCc1nccs1` [3x] showed an IC50 of 10.2 ± 0.1 nM.

The same assay, now with this note: mean ± SD from three experiments.
With `O=C(NCc1nccs1)C(=O)[C@@H](Cc1ccccc1)NC(=O)c1ccccc1` [1a, (R)-N-(3,4-dioxo-1-phenyl-4-((thiazol-2-ylmethyl)amino)butan-2-yl)benzamide], inhibition was half-maximal at 1300 nM (IC50).

`O=C(NCc1cccs1)C(=O)[C@@H](Cc1ccccc1)NC(=O)c1ccccc1` [1b] registered an IC50 of 77300 ± 2310 nM.

As for `O=C(NCc1ccco1)C(=O)[C@@H](Cc1ccccc1)NC(=O)c1ccccc1` [1c], the half-inhibitory concentration (IC50) was found to be 37200 ± 510 nM.

`O=C(NCc1ncco1)C(=O)[C@@H](Cc1ccccc1)NC(=O)c1ccccc1` [1d] showed an IC50 of 51500 ± 940 nM.

Compound `O=C(NCc1ccon1)C(=O)[C@@H](Cc1ccccc1)NC(=O)c1ccccc1` [1f] registered a half-inhibitory concentration (IC50) of 54740 ± 350 nM.

On to `O=C(NCc1ncon1)C(=O)[C@@H](Cc1ccccc1)NC(=O)c1ccccc1` [1g], for which the IC50 stood at 53100 ± 3340 nM.

As to `O=C(NCc1ncno1)C(=O)[C@@H](Cc1ccccc1)NC(=O)c1ccccc1` [1h], the IC50 was found to be 62300 ± 2070 nM.

On to `Cc1csc(CNC(=O)C(=O)[C@@H](Cc2ccccc2)NC(=O)c2ccccc2)n1` [1i], for which inhibition was half-maximal at 40700 ± 1500 nM (IC50).

`O=C(NCc1cnc(Cl)s1)C(=O)[C@@H](Cc1ccccc1)NC(=O)c1ccccc1` [1j] displayed an IC50 of 95200 ± 5990 nM.

`O=C(NCc1nccs1)C(=O)[C@@H](Cc1ccccc1F)NC(=O)c1ccccc1` [2a]: half-maximal inhibition (IC50) required 3500 ± 230 nM.

The compound `O=C(NCc1nccs1)C(=O)[C@@H](Cc1cccc(F)c1)NC(=O)c1ccccc1` [2b] displayed an IC50 of 2550 ± 20 nM.

`O=C(NCc1nccs1)C(=O)[C@@H](Cc1ccc(F)cc1)NC(=O)c1ccccc1` [2c, (R)-N-(1-(4-fluorophenyl)-3,4-dioxo-4-((thiazol-2-ylmethyl)amino)butan-2-yl)benzamide] came in with an IC50 of 1950 ± 290 nM.

`O=C(NCc1nccs1)C(=O)[C@@H](Cc1cc(F)c(F)cc1F)NC(=O)c1ccccc1` [2d] came in with a 50% inhibitory concentration (IC50) of 3370 ± 180 nM.

With `O=C(NCc1nccs1)C(=O)[C@@H](CC1CCCCC1)NC(=O)c1ccccc1` [2e], the half-maximal inhibitory concentration (IC50) was determined as 10500 ± 630 nM.

For `O=C(NCc1nccs1)C(=O)[C@@H](Cc1cccc(Cl)c1)NC(=O)c1ccccc1` [2f], the midpoint of inhibition, the IC50, lay at 1430 ± 150 nM.

Take `O=C(NCc1nccs1)C(=O)[C@@H](Cc1ccc(Cl)c(Cl)c1)NC(=O)c1ccccc1` [2g]: the IC50 was 2030 ± 70 nM.

Compound `O=C(NCc1nccs1)C(=O)[C@@H](Cc1ccccc1)NC(=O)c1ccc(F)cc1` [3c] yielded a 50% inhibitory concentration (IC50) of 1310 ± 100 nM.

Regarding `O=C(CCc1ccccc1)N[C@H](Cc1ccccc1)C(=O)C(=O)NCc1nccs1` [3e], the IC50 came to 1220 ± 100 nM.

Compound `O=C(CNC(=O)c1ccccc1)N[C@H](Cc1ccccc1)C(=O)C(=O)NCc1nccs1` [3g] registered an IC50 of 1860 ± 40 nM.

`O=C(CNC(=O)c1cnccn1)N[C@H](Cc1ccccc1)C(=O)C(=O)NCc1nccs1` [3h] gave a half-maximal inhibitory concentration (IC50) of 3620 ± 270 nM.

Regarding `O=C(CNC(=O)c1ccccn1)N[C@H](Cc1ccccc1)C(=O)C(=O)NCc1nccs1` [3i], half-maximal inhibition (IC50) required 2240 ± 100 nM.

Turning to `O=C(CNC(=O)c1cccnc1)N[C@H](Cc1ccccc1)C(=O)C(=O)NCc1nccs1` [3j], the half-maximal inhibitory concentration (IC50) was 2230 ± 370 nM.

The same assay, now with this note: read-out: IC50 against SARS-CoV-2 M^pro (FRET); mean ± SD from three experiments.
As to `O=C(NCc1cocn1)C(=O)[C@@H](Cc1ccccc1)NC(=O)c1ccccc1` [1e], the IC50 came to 11400 ± 80 nM.

For another assay, the target named is T1, SARS-CoV-2 M^pro. In words: Differential scanning fluorimetry (DSF) assay. The following applies: mean ± SD (n = 3). The class given is binding. As to the method:
M^pro was mixed with tested compounds and 5 × SYPRO Orange dye (Sigma) avoiding from light. The thermal denaturation spectra were run from 20 °C to 95 °C at a gradient of 1.5 °C/min (CFX96, BioRad). Data were analyzed by Boltzmann model to calculate the melt temperature (Tm). The equation ΔTm = Tm(compound) − Tm(DMSO) was used to calculate the thermal shift (ΔTm). The values are presented as mean ± SD (n = 3).
(In general: In DSF a fluorescence change marks the thermal transition of the protein.)
As for `O=C(NCc1nccs1)C(=O)[C@@H](Cc1ccccc1)NC(=O)c1ccccc1` [1a, (R)-N-(3,4-dioxo-1-phenyl-4-((thiazol-2-ylmethyl)amino)butan-2-yl)benzamide], the “thermal shift (ΔTm)” value came to 8.45 ± 0.35 °C.
